Values quoted from earlier work as cited in patent US8314084B2, “Device and methods for sequential, regional delivery of multiple cytotoxic agents and directed assembly of wound repair tissues” (priority 2002, dated 2012).

Settings: given intravenously to dogs

## N.N.[Cl][Pt][Cl] [cisplatin, Cis-diamminedichloroplatinum H]
  usual maximum dose-limiting schedule: 70 mg/m^2
